Measurements as given in patent US20210238139A1, “MODULATORS OF TRYPTOPHAN CATABOLISM” (E-Therapeutics PLC, priority 2018, published 2021).

System: SK-OV-3 cells
Assay: Effect of compounds on tryptophan catabolism in SK-OV-3 cell line (inhibition of kynurenine production, LC-MS/MS)
Type: cell-based
Conditions: Homo sapiens, SK-OV-3, 24 h, SK-OV-3 cell line, 24 h incubation, kynurenine in supernatant by LC-MS/MS; read-out: IC50 Ranges (ic50 values for inhibition of Kynurenine production)
Description: SK-OV-3 cells are seeded in 96-well plates in McCoy's 5A medium supplemented with 10% FBS and incubated overnight at 37° C., 5% CO2, 95% humidity. The […] growth medium is replaced with DMEM F-12 medium supplemented with 6 mg/mL L-tryptophan. Compounds are added to the wells and incubated for 24 h at 37° C., 5% CO2, 95% humidity. Compounds are tested at 8 consecutive 3-fold dilutions starting from 30 μM in duplicate. At the end of incubation, concentration of kynurenine in cell supernatants is […] determined by LC-MS/MS. In parallel, cell viability is assessed by measurement of ATP using CellTiter Glo assay (Promega), according to manufacturer's protocol. Inhibition of Kyn production is calculated using the following formula: […] IC50 ranges for compounds of the invention are presented in Table 2, whereby the IC50 ranges are as follows: • A: […]

SMILES	IC50 [nM]
N#CCc1ccc(NC(=O)N(Cc2cccs2)C2CCCC2)cc1 [Compound 6, 3-[4-(cyanomethyl)phenyl]-1-cyclopentyl-1-(2-thienylmethyl)urea]	1000 to 5000
Cc1ccc(CN(C(=O)Nc2ccc(OC(F)F)cc2)c2cnoc2C)o1 [Compound 301, 3-[4-(difluoromethoxy)phenyl]-1-[(5-methyl-2-furyl)methyl]-1-(5-methylisoxazol-4-yl)urea]	< 100
Cc1ccc(CN(C(=O)Nc2ccc(C#CCN(C)C)cc2)C2CCCC2)o1 [Compound 112, 1-cyclopentyl-3-[4-[3-(dimethylamino)prop-1-ynyl]phenyl]-1-[(5-methyl-2-furyl)methyl]urea]	500 to 1000
Cc1ccc(CN(C(=O)Nc2ccc(C#N)cc2)C2CCC(C#N)C2)o1 (stereo not shown) [Compound 224, 1-(3-cyanocyclopentyl)-3-(4-cyanophenyl)-1-[(5-methyl-2-furyl)methyl]urea]	100 to 500
CCc1ccc(CN(C(=O)Nc2ccc(C#N)cc2)c2cnoc2C)o1 [Compound 299, 3-(4-cyanophenyl)-1-[(5-ethyl-2-furyl)methyl]-1-(5-methylisoxazol-4-yl)urea]	100 to 500
Cc1ccc(CN(C(=O)Nc2ccc3c(c2)CN(C)C3=O)C2CCCC2)o1 [Compound 312, 1-cyclopentyl-1-[(5-methyl-2-furyl)methyl]-3-(2-methyl-1-oxo-isoindolin-5-yl)urea]	1000 to 5000
O=C(Nc1cccc(F)c1)N(Cc1cccs1)C1CCCC1 [Compound 55, 1-cyclopentyl-3-(3-fluorophenyl)-1-(2-thienylmethyl)urea]	500 to 1000
Cc1ccc(CN(C(=O)Nc2ccc(C#N)cn2)C2CCCC2)o1 [Compound 121, 3-(5-cyano-2-pyridyl)-1-cyclopentyl-1-[(5-methyl-2-furyl)methyl]urea]	500 to 1000
CN(C(=O)N(Cc1cccs1)C1CCCC1)c1ccccc1 [Compound 23, 1-cyclopentyl-3-methyl-3-phenyl-1-(2-thienylmethyl)urea]	> 5000
O=C(Nc1ccc(F)c(F)c1)N(Cc1cccc(OC(F)(F)F)c1)C1CCCC1 [Compound 142, 1-cyclopentyl-3-(3,4-difluorophenyl)-1-[[3 (trifluoromethoxy)phenyl]methyl]urea]	1000 to 5000
Cc1ccc(CN(C(=O)Nc2ccc(Cl)cc2)C2CC3(COC3)C2)o1 [Compound 286, 3-(4-chlorophenyl)-1-[(5-methyl-2-furyl)methyl]-1-(2-oxaspiro[3.3]heptan-6-yl)urea]	1000 to 5000
O=C(Nc1ccccc1)N(Cc1ccccn1)C1CCCC1 [Compound 67, 1-cyclopentyl-3-phenyl-1-(2-pyridylmethyl)urea]	1000 to 5000
Cc1nc(C)c(CN(C(=O)Nc2ccc(F)c(F)c2)C2CCCC2)s1 [Compound 171, 1-cyclopentyl-1-[(2,4-dimethylthiazol-5-yl)methyl]-3-(3,4-difluorophenyl)-urea]	1000 to 5000
Cc1ccc(CN(C(=O)Nc2ccccc2)C2CCCC2)s1 [Compound 24, 1-cyclopentyl-1-[(5-methyl-2-thienyl)methyl]-3-phenyl-urea]	> 5000
COc1ccc(CN(C(=O)Nc2ccc(F)c(F)c2)C2CCCC2)cc1C [Compound 47, 1-cyclopentyl-3-(3,4-difluorophenyl)-1-[(4-methoxy-3-methyl-phenyl)methyl]urea]	100 to 500
Cc1ccc(NC(=O)N(Cc2ccc(C)o2)C2CCCC2)cn1 [Compound 246, 1-cyclopentyl-1-[(5-methyl-2-furyl)methyl]-3-(6-methyl-3-pyridyl)urea]	500 to 1000
C#Cc1ccc(NC(=O)N(Cc2ccc(C)o2)C2CCN(C)CC2)cc1 [Compound 258, 3-(4-ethynylphenyl)-1-[(5-methyl-2-furyl)methyl]-1-(1-methyl-4-piperidyl)urea]	> 5000
Cc1ccc(CN(C(=O)Nc2ccccc2)C2CCC2)o1 [Compound 178, 1-cyclobutyl-1-[(5-methyl-2-furyl)methyl]-3-phenyl-urea]	1000 to 5000
Cc1ccc(CN(C(=O)Nc2nnc(-c3ccccc3)o2)C2CCCC2)o1 [Compound 175, 1-cyclopentyl-1-[(5-methyl-2-furyl)methyl]-3-(5-phenyl-1,3,4-oxadiazol-2-yl) urea]	500 to 1000
CN(Cc1cccs1)C(=O)Nc1ccc(Cl)c(Cl)c1 [Compound 200, 3-(3,4-dichlorophenyl)-1-methyl-1-(2-thienylmethyl)urea]	1000 to 5000
Cc1ccc(CN(C(=O)Nc2ccc(F)c(F)c2)C2CCCC2)s1 [Compound 27, 1-cyclopentyl-3-(3,4-difluorophenyl)-1-[(5-methyl-2-thienyl)methyl]urea]	100 to 500
CC(c1cccc(C#N)c1)N(C(=O)Nc1ccc(F)cc1)C1CCC1 (racemic) [Compound 189, 1-[1-(3-cyanophenyl)ethyl]-1-cyclobutyl-3-(4-fluorophenyl)urea]	100 to 500

SMILES	IC50 [nM]
CC1(CN(C(=O)Nc2ccc(Cl)cc2)C2CCCC2)CCN(C(=O)OC(C)(C)C)CC1 [Compound 79, tert-butyl 4-[[(4-chlorophenyl)carbamoyl-cyclopentyl-amino]methyl]-4-methyl-piperidine-1-carboxylate]	100 to 500
Cc1ccc(CN(C(=O)Nc2ccc(O)cc2)C2CCCC2)o1 [Compound 303, 1-cyclopentyl-3-(4-hydroxyphenyl)-1-[(5-methyl-furyl)methyl]urea]	> 5000
N#Cc1cc(CN(C(=O)Nc2ccc(F)c(F)c2)C2CCCC2)ccc1F [Compound 52, 1-[(3-cyano-4-fluoro-phenyl)methyl]-1-cyclopentyl-3-(3,4-difluorophenyl)urea]	< 100
Cn1ncc2ccc(CN(C(=O)Nc3ccc(C#N)cc3)C3CCC3)cc21 [Compound 217, 3-(4-cyanophenyl)-1-cyclobutyl-1-[(1-methylindazol-6-yl)methyl]urea]	100 to 500
Cc1ccc(CN(C(=O)Nc2ccc(Cl)cc2)C2CCCC2(F)F)o1 (stereo not shown) [Compound 206, 3-(4-chlorophenyl)-1-(2,2-difluorocyclopentyl)-1-[(5-methyl-2-furyl)methyl]urea]	< 100
CCN(Cc1ccc(C)o1)C(=O)Nc1ccccc1 [Compound 165, 1-ethyl-1-[(5-methyl-2-furyl)methyl]-3-phenyl-urea]	1000 to 5000
Cc1ccc(CN(C(=O)Nc2ccc(-c3cn[nH]c3)cc2)C2CCCC2)o1 [Compound 108, 1-cyclopentyl-1-[(5-methyl-2-furyl)methyl]-3-[4-(1H-pyrazol-4-yl)phenyl]urea]	100 to 500
O=C(Nc1ccc(Cl)cc1)N(Cc1ccccn1)C1CCCC1 [Compound 69, 3-(4-chlorophenyl)-1-cyclopentyl-1-(2-pyridylmethyl)urea]	100 to 500
COc1ccc(N(Cc2cccs2)C(=O)NC2CCCCC2)cc1 [Compound 202, 3-cyclohexyl-(4-methoxyphenyl)-1-(2-thienylmethyl) urea]	1000 to 5000
Cc1ccc(CN(C(=O)Nc2ccc(-c3cnn(C(C)(C)CO)c3)cc2)C2CCCC2)o1 [Compound 101, 1-cyclopentyl-3-[4-[1-(2-hydroxy-1,1-dimethyl-ethyl)pyrazol-4-yl]phenyl]-1-[(5-methyl-2-furyl)methyl]urea]	> 5000
Cc1ccc(CN(C(=O)Nc2nnc(-c3cccs3)o2)C2CCCC2)o1 [Compound 168, 1-cyclopentyl-1-[(5-methyl-2-furyl)methyl]-3-[5-(2-thienyl)-1,3,4-oxadiazol-2-yl]urea]	500 to 1000
COc1ccc(CN(C(=O)Nc2ccccc2)C2CCCC2)cc1C [Compound 45, 1-cyclopentyl-1-[(4-methoxy-3-methyl-phenyl)methyl]-3-phenyl-urea]	100 to 500
O=C(Nc1ccc2c(c1)OCO2)N(Cc1cccs1)C1CCCC1 [Compound 7, 3-(1,3-benzodioxol-5-yl)-1-cyclopentyl-1-(2-thienylmethyl)urea]	1000 to 5000
CC(c1cccc(C#N)c1)N(C(=O)Nc1ccc(Cl)cc1)C1CCCC1 (racemic) [Compound 173, 3-(4-chlorophenyl)-1-[1-(3-cyanophenyl)ethyl]-1-cyclopentyl-urea]	< 100
O=C(Nc1ccc(F)c(F)c1)N(Cc1nccs1)C1CCCC1 [Compound 37, 1-cyclopentyl-3-(3,4-difluorophenyl)-1-(thiazol-2-ylmethyl)urea]	1000 to 5000
COc1ccc(NC(=O)N(Cc2ccc(C)o2)C2CCCC2)cn1 [Compound 253, 1-cyclopentyl-3-(6-methoxy-3-pyridyl)-1-[(5-methyl-2-furyl)methyl]urea]	100 to 500
COc1ccc(NC(=O)N(Cc2cccs2)C2CCCC2)c(OC)c1 [Compound 18, 1-cyclopentyl-3-(2,4-dimethoxyphenyl)-1-(2-thienylmethyl)urea]	1000 to 5000
CC1(CN(C(=O)Nc2ccccc2)C2CCCC2)CCNCC1 [Compound 85, 1-cyclopentyl-1-[(4-methyl-4-piperidyl)methyl]-3-phenyl-urea]	1000 to 5000
CC1(CN(C(=O)Nc2ccc(F)cc2)C2CCCC2)CCN(C(=O)OC(C)(C)C)CC1 [Compound 78, tert-butyl 4-[[cyclopentyl-[(4-fluorophenyl)carbamoyl]amino]methyl]-4-methyl-piperidine-1-carboxylate]	100 to 500
Cc1ncc(CN(C(=O)Nc2ccc(C#N)cc2)c2conc2C)o1 [Compound 316, 3-(4-cyanophenyl)-(3-methylisoxazol-4-yl)-1-[(2-methyloxazol-5-yl)methyl]urea]	> 5000
N#Cc1ccc(NC(=O)N(Cc2ccc3ocnc3c2)C2CCC2)cc1 [Compound 223, 1-(1,3-benzoxazol-5-ylmethyl)-3-(4-cyanophenyl)-1-cyclobutyl-urea]	100 to 500
